Laboratory results reported in US20160136130A1, “Oral Ultraviolet Resistance Enhancer” (KAO CORPORATION, priority 2013, published 2016).

Tests used:
IGF-1 = settings: applied to the skin; cited from earlier work
HR-1 hairless mice = assay: Ultraviolet-induced erythema (a* value) and epidermal thickness after oral GDL mixed feed; assay type: in vivo, mouse; settings: UVB 40 mJ/cm^2
Experimental: HR-1 hairless mice (female, 8 weeks of age) (Japan SLC, Inc.) were bred in conditions of a temperature of 23±1° C., a humidity of 50±1%, and a lighting time of 7:00 to 19:00, and the mice freely ingested feed and water during the test period. […] After the two-week ingestion term, two sites (an irradiation site and a non-irradiation site) of 1.5 cm×1.0 cm were set in contiguity with each other on the back of the mouse under pentobarbital anesthesia, and irradiation was applied to the irradiation site in a UVB exposure dose of 1 mW/cm^2 for 40 seconds (40 mJ/cm^2). A degree of erythema was evaluated after 2 days from the irradiation by a skin color (a*value) measurement using a spectrophotometer SE-6000 (Nippon Denshoku Industries Co., Ltd.). The a*value is an index showing redness of the skin color, and it can be said that the skin turns more red, namely, the more erythema are generated, as the a* value is increased.
After the measurement, blood was drawn from a heart under deep anesthesia, and the skin was taken from the UVB non-irradiation site and the irradiation site. […] As for an epidermal thickness, an average value of epidermal thicknesses at 15 arbitrary points per tissue was defined as the epidermal thickness of the tissue.

HRM-2 hairless mice = assay: Long-term repeated UVB irradiation (20 weeks): pigmentation, stratum corneum function, skin elasticity; assay type: in vivo, mouse; settings: 2.0% GDL feed
Excerpt: After a test feed was previously ingested for 3 weeks, UVB irradiation was applied to the UVB irradiation groups once per day over 20 weeks. As an ultraviolet resistance was obtained by continuous irradiation, a UVB irradiation intensity was increased from 40 mJ/cm^2 to 130 mJ/cm^2 in stages (irradiation in 0 to the first week: 40 mJ/cm^2, irradiation in the second to the forth weeks: 54 mJ/cm^2, irradiation in the fifth to the seventh weeks: 72 mJ/cm^2, irradiation in the eighth to the twelfth weeks: 108 mJ/cm^2, irradiation in the thirteenth to the fourteenth weeks: 120 mJ/cm^2, irradiation in the fifteenth to twentieth weeks: 130 mJ/cm^2). During the UVB irradiation term, the test feed was ingested. At the time of the grouping, and the irradiation 0th, 4th, 8th, 12th, 16th, and 20th weeks, the measurements of L*values using a spectrophotometer, TEWL values using a Tewameter, and stratum corneum moisture contents (the Capacitance value) using a Corneometer were performed. At the irradiation 20th week, skin physical parameters were measured using a Cutometer. The obtained values are expressed as Ave.±S.D., n=10-11, and the multiple comparison test was performed according to Tukey-Kramer.

[1] = test system: EDN1, c-Kit, LIF, FGF2, HGF; assay: qRT-PCR of UVB-induced melanin synthesis-related molecule expression in skin; assay type: in vivo, mouse; settings: 1.0% GDL feed 2 weeks; UVB 40 mJ/cm^2; 24 hours after irradiation
Experimental: (§1) HR-1 hairless mice (female, 8 weeks of age) (Japan SLC, Inc.) were bred in conditions of a temperature of 23±1° C., a humidity of 50±1%, and a lighting time of 7:00 to 19:00, and the mice freely ingested feed and water during the test period. […] After the two-week ingestion term, two sites (an irradiation site and a non-irradiation site) of 1.5 cm×1.0 cm were set in contiguity with each other on the back of the mouse under pentobarbital anesthesia, and irradiation was applied to the irradiation site in a UVB exposure dose of 1 mW/cm^2 for 40 seconds (40 mJ/cm^2). After 24 hours from the irradiation, blood was drawn from a heart, and the skin was taken from the UVB non-irradiation site and the irradiation site, from which RNA was extracted. A gene expression level of the molecule, shown below, was quantified from the extracted RNA according to qRT-PCR. As a TaqMan Gene Expression Assay (Applied Biosystems) probe, which specifically detects a target gene, were used Il-1b (Mm01336189_m1; IL-1b, Il-6 (Mm00446190_m1; IL-6), Gm-csf (Mm01290062_m1; GM-CSF), Tnf (Mm00443258_m1; TNFa), Ptgs2 (Mm01307329_m1; COX-2), Tlr3 (Mm01207404_m1; TLR3), Socs3 (Mm00545913_s1; SOCS3), Vcam1 (Mm01320970_m1; VCAM-1), Icam1 (Mm00516023_m1; ICAM-1), Sele (Mm00441278_m1; E-selectin), Edn1 (Mm00438656_m1; EDN1), Kit1 (Mm00442972_m1; SCF), C-kit (Mm00445212_m1; c-Kit), Lif (Mm00434761_m1; LIF), Fgf2 (Mm00433287_m1; FGF2), Hgf (Mm01135185_m1; HGF), Pcna (Mm00448100_g1; PCNA), Ccnd1 (Mm00432359_m1; CyclinD1), Mmp13 (Mm00439491_m1; MMP13), Mmp2 (Mm00439506_m1; MMP2), Mmp9 (Mm00442991_m1; MMP9), and Mmp14(Mm00485054_m1; MMP14). A target gene expression level was corrected by an expression level of an internal standard gene Rplp0 (Mm01974474_gH; RPLP0). An analysis was performed using 7500 Fast Real-Time PCR System (Applied Biosystems). The obtained values are expressed as Ave.±S.D., n=10, and as for a statistical significance test between many groups, a multiple comparison test according to Dunnett was performed (*p<0.05, **p<0.01 (vs Cont UVB+). • IL-1β: Interleukin-1β • IL-6: Interleukin-6 • GM-CSF: Granulocyte macrophage colony-stimulating factor • TNFα: Tumor necrosis factor α • COX-2: Cyclooxygenase-2 • TLR3: Toll-like receptor 3 • SOCS3: Suppressor of cytokine signaling 3 • VCAM-1: Vascular cell adhesion molecule-1 • ICAM-1: Intercellular adhesion molecule-1 • E-selectin • EDN1: Endothelin 1 • SCF: Stem cell factor (kit-ligand) • c-Kit • LIF: Leukemia inhibitory factor • FGF2: Fibroblast growth factor 2 (basic) • HGF: Hepatocyte growth factor • PCNA: Proliferating cell nuclear antigen • CyclinD1 • MMP13: Matrix metallopeptidase 13 (Collagenase 3) • MMP2: Matrix metallopeptidase 2 (Gelatinase A) • MMP9: Matrix metallopeptidase 9 (Gelatinase B) • MMP14: Matrix metallopeptidase 14 (membrane-inserted)

healthy males = assay: Human crossover test, capsule including glucono-δ-lactone: MED, erythema, pigmentation after UVB; assay type: in vivo; settings: 2000 mg glucono-δ-lactone per day orally
Experimental: A 4-week ingestion interval was provided between the first half and the last half of the crossover test. Glucono-δ-lactone, which is a test product, is a food additive (Fuso Chemical Co., Ltd.), and the intake was divided into twice a day for ingestion. After a 3-week ingestion term, irradiation was applied to an upper arm inside part with a UVB intensity of 1 mW/cm^2 for 7 different time periods, each at different sites (an irradiation area of 0.6 cm×1.0 cm per site). After 24 hours from the UVB irradiation, an MED value (the minimum erythema dose) was visually evaluated.
After the 3-week ingestion term, irradiationwith a radiation dose corresponding to 2 MED was applied to an area of 1.5 cm×1.5 cm on the upper arm inside part with a UVB intensity of 1 mW/cm^2. After 24 hours from the UVB irradiation, a ΔAa*value (erythema intensity: a difference from that in the non-irradiation site) was measured using a spectrophotometer. Further, after one week from the UVB irradiation, a ΔL*value (degree of pigmentation: a difference from that in the non-irradiation site) in each irradiation site wasmeasuredusing the spectrophotometer. The obtained values are expressed as Ave.±S.D., n=10, and as for a statistical significance test between the two groups, a paired t-test was performed (*p<0.05, **p<0.01).

[2] = test system: VCAM-1, ICAM-1, E-selectin; assay: qRT-PCR of UVB-induced adhesion molecule expression in skin; assay type: in vivo, mouse; settings: 1.0% GDL feed 2 weeks; UVB 40 mJ/cm^2; 24 hours after irradiation
Experimental: (§2) HR-1 hairless mice (female, 8 weeks of age) (Japan SLC, Inc.) were bred in conditions of a temperature of 23±1° C., a humidity of 50±1%, and a lighting time of 7:00 to 19:00, and the mice freely ingested feed and water during the test period. […] After the two-week ingestion term, two sites (an irradiation site and a non-irradiation site) of 1.5 cm×1.0 cm were set in contiguity with each other on the back of the mouse under pentobarbital anesthesia, and irradiation was applied to the irradiation site in a UVB exposure dose of 1 mW/cm^2 for 40 seconds (40 mJ/cm^2). After 24 hours from the irradiation, blood was drawn from a heart, and the skin was taken from the UVB non-irradiation site and the irradiation site, from which RNA was extracted. A gene expression level of the molecule, shown below, was quantified from the extracted RNA according to qRT-PCR. […]

[3] = test system: IL-1β, IL-6, GM-CSF, TNFα, COX-2, TLR3, SOCS3; assay: qRT-PCR of UVB-induced inflammation-related gene expression in skin; assay type: in vivo, mouse; settings: 1.0% GDL feed 2 weeks; UVB 40 mJ/cm^2; 24 hours after irradiation; corrected by Rplp0
Experimental: as §1

MMP13, MMP2, MMP9, MMP14 = assay: qRT-PCR of UVB-induced dermal denaturation-related molecule expression in skin; assay type: in vivo, mouse; settings: 1.0% GDL feed 2 weeks; UVB 40 mJ/cm^2; 24 hours after irradiation
Experimental: as §1, with “An analysis was performed using 7500 Fast Real-Time PCR System (Applied Biosystems).” left out

PCNA, CyclinD1 = assay: qRT-PCR of UVB-induced proliferation-related molecule expression in skin; assay type: in vivo, mouse; settings: 1.0% GDL feed 2 weeks; UVB 40 mJ/cm^2; 24 hours after irradiation
Experimental: as §2

[4] = UVB once per day, 40 to 130 mJ/cm^2, after the UV irradiation 8th week or 12th week

**Q.** Which IGF-1 secretion (IGF-1) does the source give for `O=C(O)[C@H](O)[C@@H](O)[C@H](O)[C@H](O)CO` [gluconic acid] here?
**A.** promoted

**Q.** With `O=C1O[C@H](CO)[C@@H](O)[C@H](O)[C@H]1O` [GDL, Glucono-δ-lactone] as the compound, how does the “increase of a*values due to the UVB irradiation (erythema)” value (HR-1 hairless mice; 0.5% and 1% GDL mixed feed for 2 weeks, 2 days after irradiation) read?
**A.** concentration-dependently suppressed

**Q.** And the “a* value in the irradiation sites compared to the irradiation sites in the control group” value (HR-1 hairless mice; 1% GDL group, feed for 2 weeks, 2 days after irradiation)?
**A.** significant suppression

**Q.** What about the “increase of epidermal thickness in the irradiation sites compared to control group” value (HR-1 hairless mice; GDL groups (0.5%, 1%), feed for 2 weeks, HE stain) of the same compound?
**A.** significantly suppressed

**Q.** What about the “reduction of the skin viscoelasticity (Uv/Ue)” value (HRM-2 hairless mice; UVB once per day over 20 weeks, Cutometer at irradiation 20th week) of the same compound?
**A.** suppressed

**Q.** And the “decrease of L*value caused by the UVB irradiation (pigmentation)” value (HRM-2 hairless mice; [4])?
**A.** suppressed

**Q.** What about the “decrease of stratum corneum moisture content (the Capacitance value) caused by the UVB irradiation” value (HRM-2 hairless mice; [4]) of the same compound?
**A.** suppressed

**Q.** And the EDN1 expression [1]?
**A.** significantly reduced

**Q.** And the FGF2 expression [1]?
**A.** significantly reduced

**Q.** And the HGF expression [1]?
**A.** significantly reduced

**Q.** What about the LIF expression [1] of the same compound?
**A.** significantly reduced

**Q.** What about the c-Kit expression [1] of the same compound?
**A.** significantly reduced

**Q.** What about the “Δa*values (erythema intensity) compared to the placebo group” value (healthy males; 2 MED UVB, after 24 hours from the UVB irradiation) of the same compound?
**A.** significantly decreased

**Q.** What about the “AL* values (degree of pigmentation) compared to the placebo group” value (healthy males; 2 MED UVB, after one week from the UVB irradiation) of the same compound?
**A.** significantly decreased

**Q.** And the “MED values (minimum erythema dose) compared to the placebo group” value (healthy males; after 3-week ingestion, 24 hours after UVB, upper arm inside)?
**A.** significantly high

**Q.** What about the ICAM-1 expression [2] of the same compound?
**A.** suppressed

**Q.** And the VCAM-1 expression [2]?
**A.** suppressed

**Q.** What about the “COX-2 gene expression in irradiation sites vs control” value [3] of the same compound?
**A.** significantly suppressed

**Q.** What about the “GM-CSF gene expression in irradiation sites vs control” value [3] of the same compound?
**A.** significantly suppressed

**Q.** What about the “IL-1β gene expression in irradiation sites vs control” value [3] of the same compound?
**A.** significantly suppressed

**Q.** What about the “IL-6 gene expression in irradiation sites vs control” value [3] of the same compound?
**A.** significantly suppressed

**Q.** What about the “SOCS3 gene expression in irradiation sites vs control” value [3] of the same compound?
**A.** significantly suppressed

**Q.** What about the “TLR3 gene expression in irradiation sites vs control” value [3] of the same compound?
**A.** significantly suppressed

**Q.** What about the “TNFα gene expression in irradiation sites vs control” value [3] of the same compound?
**A.** significantly suppressed

**Q.** And the “collagenase (MMP13) expression” value (MMP13, MMP2, MMP9, MMP14)?
**A.** suppressed

**Q.** And the “gelatinase MMP2 expression” value (MMP13, MMP2, MMP9, MMP14)?
**A.** suppressed

**Q.** And the “gelatinase MMP9 expression” value (MMP13, MMP2, MMP9, MMP14)?
**A.** suppressed

**Q.** And the “membrane-associated MMP (MMP14) expression” value (MMP13, MMP2, MMP9, MMP14)?
**A.** suppressed

**Q.** And the CyclinD1 expression (PCNA, CyclinD1)?
**A.** suppressed

**Q.** And the PCNA expression (PCNA, CyclinD1)?
**A.** suppressed
